Experimental data reported in patent US20250290117A1, “MOLECULAR PHENOTYPIC ANTIMICROBIAL SUSCEPTIBILITY TESTING” (priority 2024, published 2025).

How the values were obtained:
E. coli = assay: Molecular phenotypic antimicrobial susceptibility test, specimen with two detected pathogens incubated together without isolation; assay type: cell-based, Escherichia coli; conditions: E. coli in specimen with two detected pathogens (E. coli and M. morganii) incubated together; for Ct of Sensitive Breakpoint: Ct of controls (average) 15.93; for Molecular Antimicrobial Susceptibility Result: at sensitive breakpoint
Outline: (§1)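 Specimen in boric acid; pathogens identified by PCR while a parallel aliquot grew 4-6 h in liquid medium. With >10,000 cells/mL detected, culture diluted to 0.5 McFarland and exposed to antimicrobials in broth (e.g. Mueller Hinton) at breakpoint concentrations; both pathogens incubated together unisolated, growth read by molecular methods against medium-only wells.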

[1] = system: pathogens of clinical samples; assay: Molecular phenotypic antimicrobial susceptibility test of clinical samples, extraction DNA purification step prior to PCR (Table 6); assay type: cell-based
Outline: (§2)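 Patient specimens in boric acid were grown in culture medium, adjusted to 0.5 McFarland by optical density, then incubated 12-16 hours with antimicrobials in Mueller Hinton Broth at breakpoint concentrations. Growth was read by semi-quantitative PCR, alongside a no-antimicrobial well for pathogen load.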

Escherichia coli = assay: Molecular phenotypic antimicrobial susceptibility test (extraction or DNA purification prior to PCR); assay type: cell-based
Outline: as §2

M. morganii = assay: Molecular phenotypic antimicrobial susceptibility test, specimen with two detected pathogens incubated together without isolation; assay type: cell-based, Morganella morganii; conditions: M. morganii in specimen with two detected pathogens (E. coli and M. morganii) incubated together; for Ct of Sensitive Breakpoint: Ct of controls (average) 19.99; for Molecular Antimicrobial Susceptibility Result: at sensitive breakpoint
Outline: as §1

[2] = E. coli, clinical sample of r10-r24
[3] = E. coli, clinical sample of r10-r24, Ct Control Avg 18.112
[4] = E. coli, clinical sample of r158-r172
[5] = E. coli, clinical sample of r158-r172, Ct Control Avg 20.146
[6] = K. aerogenes, clinical sample of r136-r150
[7] = K. aerogenes, clinical sample of r136-r150, Ct Control Avg 19.994
[8] = K. pneumoniae, clinical sample of r121-r135
[9] = K. pneumoniae, clinical sample of r121-r135, Ct Control Avg 24.272
[10] = M. morganii, clinical sample of r55-r69
[11] = M. morganii, clinical sample of r70-r84
[12] = M. morganii, clinical sample of r70-r84, Ct Control Avg 27.053
[13] = P. mirabilis, clinical sample of r25-r39
[14] = P. mirabilis, clinical sample of r25-r39, Ct Control Avg 26.064
[15] = P. mirabilis, clinical sample of r40-r54
[16] = P. mirabilis, clinical sample of r40-r54, Ct Control Avg 26.987
[17] = E. coli isolate 1, Ct at control (average) 21.238
[18] = E. coli isolate 1, at sensitive breakpoint
[19] = E. coli isolate 2, Ct at control (average) 21.270
[20] = E. coli isolate 2, at sensitive breakpoint
[21] = E. coli isolate 3, Ct at control (average) 22.0995
[22] = E. coli isolate 3, at sensitive breakpoint

SMILES | Ct of Sensitive Breakpoint (E. coli) | Molecular Antimicrobial Susceptibility Result (E. coli) | Molecular Antibiotic Susceptibility Result [1, 2] | Ct [1, 3] | Molecular Antibiotic Susceptibility Result [1, 4] | Ct [1, 5] | Molecular Antibiotic Susceptibility Result [1, 6] | Ct [1, 7] | Molecular Antibiotic Susceptibility Result [1, 8] | Ct [1, 9] | Molecular Antibiotic Susceptibility Result [1, 10] | Molecular Antibiotic Susceptibility Result [1, 11] | Ct [1, 12] | Molecular Antibiotic Susceptibility Result [1, 13] | Ct [1, 14] | Molecular Antibiotic Susceptibility Result [1, 15] | Ct [1, 16] | Ct at Sensitive Breakpoint (Escherichia coli; [17]) | Molecular Antimicrobial Susceptibility Result (Escherichia coli; [18]) | Ct at Sensitive Breakpoint (Escherichia coli; [19]) | also measured
C[C@H]1COc2c(N3CCN(C)CC3)c(F)cc3c(=O)c(C(=O)O)cn1c23 [Levofloxacin] | 32.72 | Sensitive (Antimicrobial wells with pathogen load detected below the control wells (typically >2 cycle thresholds later) may be reported as Sensitive) | Resistant | 17.903 | Sensitive (Antimicrobial wells with pathogen load detected below the control wells (typically >2 cycle thresholds later) may be reported as Sensitive) | 34.012 | Sensitive (Antimicrobial wells with pathogen load detected below the control wells (typically >2 cycle thresholds later) may be reported as Sensitive) | 38.019 | Sensitive (Antimicrobial wells with pathogen load detected below the control wells (typically >2 cycle thresholds later) may be reported as Sensitive) | 34.466 | Sensitive (Antimicrobial wells with pathogen load detected below the control wells (typically >2 cycle thresholds later) may be reported as Sensitive) | Sensitive (Antimicrobial wells with pathogen load detected below the control wells (typically >2 cycle thresholds later) may be reported as Sensitive) | 37.67 | Sensitive (Antimicrobial wells with pathogen load detected below the control wells (typically >2 cycle thresholds later) may be reported as Sensitive) | 33.029 | Sensitive (Antimicrobial wells with pathogen load detected below the control wells (typically >2 cycle thresholds later) may be reported as Sensitive) | 33.384 | 20.768 | Resistant | 19.100 | Molecular Antibiotic Susceptibility Result ([1]; E. faecalis, clinical sample of r93-r99): Sensitive (Antimicrobial wells with pathogen load detected below the control wells (typically >2 cycle thresholds later) may be reported as Sensitive); Ct ([1]; E. faecalis, clinical sample of r93-r99, Ct Control Avg 22.987): 37.857; Ct ([1]; E. faecalis, clinical sample of r100-r106, Ct Control Avg 23.073): 38.337; Ct ([1]; E. faecalis, clinical sample of r107-r113, Ct Control Avg 22.144): 29.347; Molecular Antibiotic Susceptibility Result ([1]; E. faecalis, clinical sample of r114-r120): Sensitive (Antimicrobial wells with pathogen load detected below the control wells (typically >2 cycle thresholds later) may be reported as Sensitive); Ct ([1]; E. faecalis, clinical sample of r114-r120, Ct Control Avg 20.822): 32.971; Molecular Antibiotic Susceptibility Result ([1]; E. faecalis, clinical sample of r151-r157): Sensitive (Antimicrobial wells with pathogen load detected below the control wells (typically >2 cycle thresholds later) may be reported as Sensitive); Ct ([1]; E. faecalis, clinical sample of r151-r157, Ct Control Avg 20.56): 37.926; Molecular Antibiotic Susceptibility Result ([1]; S. aureus, clinical sample of r85-r92): Resistant; Ct ([1]; S. aureus, clinical sample of r85-r92, Ct Control Avg 24.32): 19.106; Molecular Antimicrobial Susceptibility Result (Escherichia coli; [20]): Resistant; Ct at Sensitive Breakpoint (Escherichia coli; [21]): 29.342; Molecular Antimicrobial Susceptibility Result (Escherichia coli; [22]): Resistant; Ct at Sensitive Breakpoint (Escherichia coli; E. coli isolate 4, Ct at control (average) 17.5733): 17.88; Molecular Antimicrobial Susceptibility Result (Escherichia coli; E. coli isolate 4, at sensitive breakpoint): Resistant; Ct at Sensitive Breakpoint (Escherichia coli; E. coli isolate 5, Ct at control (average) 21.0933): 33.85; Molecular Antimicrobial Susceptibility Result (Escherichia coli; E. coli isolate 5, at sensitive breakpoint): Sensitive (Antimicrobial wells with pathogen load detected below the control wells (typically >2 cycle thresholds later) may be reported as Sensitive); Ct of Sensitive Breakpoint (M. morganii): 29.62; Molecular Antimicrobial Susceptibility Result (M. morganii): Sensitive (Antimicrobial wells with pathogen load detected below the control wells (typically >2 cycle thresholds later) may be reported as Sensitive)
C[C@@H](O)[C@H]1C(=O)N2C(C(=O)O)=C(S[C@@H]3CN[C@H](C(=O)N(C)C)C3)[C@H](C)[C@H]12 [Meropenem] | 25.70 | Sensitive (Antimicrobial wells with pathogen load detected below the control wells (typically >2 cycle thresholds later) may be reported as Sensitive) | Sensitive (Antimicrobial wells with pathogen load detected below the control wells (typically >2 cycle thresholds later) may be reported as Sensitive) | 27.07 | Sensitive (Antimicrobial wells with pathogen load detected below the control wells (typically >2 cycle thresholds later) may be reported as Sensitive) | 30.723 | Sensitive (Antimicrobial wells with pathogen load detected below the control wells (typically >2 cycle thresholds later) may be reported as Sensitive) | 33.144 | Sensitive (Antimicrobial wells with pathogen load detected below the control wells (typically >2 cycle thresholds later) may be reported as Sensitive) | 31.816 | Sensitive (Antimicrobial wells with pathogen load detected below the control wells (typically >2 cycle thresholds later) may be reported as Sensitive) | Sensitive (Antimicrobial wells with pathogen load detected below the control wells (typically >2 cycle thresholds later) may be reported as Sensitive) | 36.672 | Sensitive (Antimicrobial wells with pathogen load detected below the control wells (typically >2 cycle thresholds later) may be reported as Sensitive) | 34.223 | Sensitive (Antimicrobial wells with pathogen load detected below the control wells (typically >2 cycle thresholds later) may be reported as Sensitive) | 35.503 | 33.626 | Sensitive (Antimicrobial wells with pathogen load detected below the control wells (typically >2 cycle thresholds later) may be reported as Sensitive) | 29.525 | Ct ([1]; M. morganii, clinical sample of r55-r69, Ct Control Avg 28.86): 37.898; Molecular Antimicrobial Susceptibility Result (Escherichia coli; [20]): Sensitive (Antimicrobial wells with pathogen load detected below the control wells (typically >2 cycle thresholds later) may be reported as Sensitive); Ct at Sensitive Breakpoint (Escherichia coli; [21]): 23.588; Molecular Antimicrobial Susceptibility Result (Escherichia coli; [22]): Sensitive (Antimicrobial wells with pathogen load detected below the control wells (typically >2 cycle thresholds later) may be reported as Sensitive); Ct of Sensitive Breakpoint (M. morganii): 29.99; Molecular Antimicrobial Susceptibility Result (M. morganii): Sensitive (Antimicrobial wells with pathogen load detected below the control wells (typically >2 cycle thresholds later) may be reported as Sensitive)
